# Patent US8822449B2, “Substituted aminoindanes and analogs thereof, and the pharmaceutical use thereof” (Sanofi, priority 2008, dated 2014)
# Where two headings read alike, the source gives them in different places.
# Biological target: T1, sodium-proton exchanger of subtype 3 (NHE3) (Homo sapiens, UniProt P48764)
# T1 construct: expressed in transfected cells
# T1 sequence (P48764 26-834): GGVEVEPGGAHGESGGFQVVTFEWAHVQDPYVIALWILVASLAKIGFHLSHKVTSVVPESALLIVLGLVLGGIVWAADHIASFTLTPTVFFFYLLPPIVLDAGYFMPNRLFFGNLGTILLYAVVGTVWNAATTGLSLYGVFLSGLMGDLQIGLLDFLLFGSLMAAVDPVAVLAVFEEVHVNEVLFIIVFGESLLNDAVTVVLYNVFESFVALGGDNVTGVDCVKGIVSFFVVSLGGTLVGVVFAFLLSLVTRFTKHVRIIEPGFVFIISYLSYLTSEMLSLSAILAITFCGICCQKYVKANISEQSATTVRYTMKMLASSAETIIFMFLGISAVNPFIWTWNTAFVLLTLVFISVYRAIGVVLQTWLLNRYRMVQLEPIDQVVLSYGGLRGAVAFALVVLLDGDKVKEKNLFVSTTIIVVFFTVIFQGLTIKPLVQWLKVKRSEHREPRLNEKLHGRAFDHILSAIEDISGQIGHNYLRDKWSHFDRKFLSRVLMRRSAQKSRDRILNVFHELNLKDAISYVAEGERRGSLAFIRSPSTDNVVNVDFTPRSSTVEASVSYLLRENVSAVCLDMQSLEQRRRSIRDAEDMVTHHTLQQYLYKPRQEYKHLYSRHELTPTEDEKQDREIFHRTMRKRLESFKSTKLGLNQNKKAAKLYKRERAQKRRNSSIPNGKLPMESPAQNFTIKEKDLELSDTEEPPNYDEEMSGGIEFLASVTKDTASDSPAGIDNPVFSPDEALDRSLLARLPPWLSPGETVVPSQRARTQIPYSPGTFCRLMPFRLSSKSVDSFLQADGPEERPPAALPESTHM
# Assay: Recovery of intracellular pH (pHi) after acidification in LAP1 cells stably expressing NHE3 (BCECF fluorescence, FLIPR)
# Type: cell-based
# [1] = LAP1 cells stably expressing NHE3, pH recovery after acidification, range 1 is % inhibition at 10 μM, read-out: Activity range (inhibitory effect on NHE3)
IC50 [1] [µM],SMILES,also measured
< 1,"C[C@@H]1CN([C@H]2Cc3c(Cl)cc(Cl)cc3[C@@H]2Oc2ccc(S(C)(=O)=O)cc2)C[C@H](C)N1 [Example 21, (3R,5S)-1-[trans-(1S,2S)-4,6-dichloro-1-(4-methanesulfonylphenoxy)indan-2-yl]-3,5-dimethylpiperazine]",
1 to 10,"NS(=O)(=O)c1ccc(OC2c3ccccc3CC2N2CC[C@@H](O)C2)cc1 (mixture of isomers) [Example 527, 4-[rac-trans-(1,2)-2-((R)-3-Hydroxypyrrolidin-1-yl)indan-1-yloxy]benzenesulfonamide]",
,"Cc1c(O[C@H]2c3cc(Cl)cc(Cl)c3C[C@@H]2N2CC[C@@H](O)C2)cccc1-n1ccn(C)c1=O [Example 312, 1-{3-[(1S,2S)-4,6-dichloro-2-((R)-3-hydroxypyrrolidin-1-yl)indan-1-yloxy]-2-methylphenyl}-3-methyl-1,3-dihydroimidazol-2-one]",inhibition at 10 µM [1]: 20 to 50%
1 to 10,"CS(=O)(=O)c1ccc(O[C@H]2c3cc(Cl)cc(F)c3C[C@@H]2N2CCCC2)cc1 (racemic) [Example 293, 1-[rac-trans-(1,2)-6-chloro-4-fluoro-1-(4-methanesulfonylphenoxy)indan-2-yl]pyrrolidine]",
,"CC(=O)Nc1ccccc1OC1c2ccccc2CC1N1CCCC1 (racemic) [Example 635, N-[2-(rac-trans-(1,2)-2-pyrrolidin-1-ylindan-1-yloxy)phenyl]acetamide]","inhibition at 10 µM (LAP1, read-out: Activity range (inhibitory effect on NHE3)): 20 to 50%"
1 to 10,"O=C1CCC(=O)N1c1cccc(O[C@H]2c3cc(Cl)cc(Cl)c3C[C@@H]2N2CC[C@@H](O)C2)c1 [Example 316, 1-{3-[(1S,2S)-4,6-dichloro-2-((R)-3-hydroxypyrrolidin-1-yl)indan-1-yloxy]phenyl}pyrrolidine-2,5-dione]",
,"Cc1ccc(O[C@H]2c3ccccc3CC[C@@H]2N2CCC[C@@H](N)C2)cc1Cl (racemic) [Example 53, (R)-1-[rac-trans-(1,2)-1-(3-chloro-4-methylphenoxy)-1,2,3,4-tetrahydronaphthalen-2-yl]piperidin-3-ylamine]",inhibition at 10 µM [1]: 20 to 50%
< 1,"Cc1nnc(C)n1-c1ccc(O[C@H]2c3cc(Cl)cc(Cl)c3C[C@@H]2N2CCOCC2)c(F)c1 [Example 564, 4-{trans-(1S,2S)-4,6-dichloro-1-[4-(3,5-dimethyl-[1,2,4]triazol-4-yl)-2-fluorophenoxy]indan-2-yl}morpholine]",
1 to 10,"CC1(C)NC(=O)N(c2ccc(F)c(O[C@H]3c4cc(Cl)cc(Cl)c4C[C@@H]3N3CC[C@@H](O)C3)c2)C1=O [Example 416, 3-{3-[(1S,2S)-4,6-dichloro-2-((R)-3-hydroxypyrrolidin-1-yl)indan-1-yloxy]-4-fluorophenyl}-5,5-dimethylimidazolidine-2,4-dione]",
< 1,"Clc1cc(Cl)c2c(c1)[C@H](Oc1cccc(-n3cnnn3)c1)[C@@H](N1CCNCC1)C2 [Example 248, 1-[(1S,2S)-4,6-dichloro-1-(3-tetrazol-1-ylphenoxy)indan-2-yl]piperazine]",
1 to 10,"CCn1cnn(-c2ccc(O[C@H]3c4cc(Cl)cc(Cl)c4C[C@@H]3N3CC[C@@H](O)C3)cc2)c1=O [Example 736, 2-{4-[trans-(1S,2S)-4,6-Dichloro-2-((R)-3-hydroxy-pyrrolidin-1-yl)-indan-1-yloxy]-phenyl}-4-ethyl-2,4-dihydro-[1,2,4]triazol-3-one]",
1 to 10,"N[C@@H]1CCCN([C@H]2CCc3ccccc3[C@@H]2Oc2cccc(-n3cnnn3)c2)C1 (racemic) [Example 60, (R)-1-[rac-trans-(1,2)-1-(3-tetrazol-1-ylphenoxy)-1,2,3,4-tetrahydronaphthalen-2-yl]piperidin-3-ylamine]",
,"CCC(CC)N[C@@H]1Cc2ccccc2[C@H]1Oc1ccc(S(C)(=O)=O)cc1 (racemic) [Example 723, (1-Ethyl-propyl)-[rac-trans-(1,2)-1-(4-methanesulfonyl-phenoxy)-indan-2-yl]-amine]",inhibition at 10 µM [1]: 20 to 50%
1 to 10,"N#Cc1c(F)cccc1O[C@@H]1c2ccccc2C[C@H]1N1C[C@H]2CNC[C@H]2C1 (racemic) [Example 398, 2-fluoro-6-[rac-trans-(1,2)-2-(hexahydropyrrolo[3,4-c]pyrrol-2-yl)indan-1-yloxy]benzonitrile]",
,"CC(C)[C@H]1COC(=O)N1c1ccc(Cl)c(O[C@H]2c3cc(Cl)cc(F)c3C[C@@H]2N2CC[C@@H](O)C2)c1 [Example 211, (S)-3-{4-chloro-3-[(1S,2S)-6-chloro-4-fluoro-2((R)-3-hydroxypyrrolidin-1-yl)indan-1-yloxy]phenyl}-4-isopropyloxazolidin-2-one]",inhibition at 10 µM [1]: 20 to 50%
,"Cc1nnc(C)n1-c1ccc(O[C@H]2c3cc(Cl)c(Cl)cc3C[C@@H]2N2CCCC2)cc1 (racemic) [Example 498, 4-[4-(rac-trans-(1,2)-5,6-dichloro-2-pyrrolidin-1-ylindan-1-yloxy)phenyl]-3,5-dimethyl-4H-[1,2,4]triazole]",inhibition at 10 µM [1]: 20 to 50%
< 1,"NS(=O)(=O)c1ccc(O[C@@H]2c3ccccc3C[C@H]2NC2CCCC2)c(F)c1 (racemic) [Example 460, 4-(2-cyclopentylaminoindan-1-yloxy)-3-fluorobenzenesulfonamide]",
< 1,"N#Cc1ccc(O[C@@H]2c3ccccc3C[C@H]2N2C[C@H]3CNC[C@H]3C2)c(Cl)c1 (racemic) [Example 445, 3-chloro-4-[rac-trans-(1,2)-2-(hexahydropyrrolo[3,4-c]pyrrol-2-yl)indan-1-yloxy]benzonitrile]",
1 to 10,"N[C@H]1CCCN([C@@H]2Cc3ccccc3[C@H]2Oc2cccc(CN3CCCCC3)c2)C1 (racemic) [Example 170, (S)-1-[rac-trans-(1,2)-1-(3-piperidin-1-ylmethylphenoxy)indan-2-yl]piperidin-3-ylamine]",
,"O=C(O[C@H]1c2ccccc2C[C@@H]1N1CCCC1)c1ccc(N2C(=O)CCC2=O)cc1 [Example 458, 4-(2,5-dioxopyrrolidin-1-yl)benzoic acid (1S,2S)-2-pyrrolidin-1-ylindan-1-yl ester]",inhibition at 10 µM [1]: 20 to 50%
1 to 10,"N[C@@H]1CCCN([C@H]2CCc3ccccc3[C@@H]2Oc2ccc(N3C(=O)CCC3=O)cc2)C1 (racemic) [Example 326, 1-{4-[rac-trans-(1,2)-2-((R)-3-aminopiperidin-1-yl)-1,2,3,4-tetrahydronaphthalen-1-yloxy]phenyl}pyrrolidine-2,5-dione]",
< 1,"Fc1ccc(O[C@H]2c3cc(Cl)cc(Cl)c3C[C@@H]2N2CCNCC2)c(-c2cc[nH]n2)c1 [Example 309, 1-{(1S,2S)-4,6-dichloro-1-[4-fluoro-2-(1H-pyrazol-3-yl)phenoxy]indan-2-yl}piperazine]",
< 1,"Cc1nnc(C)n1-c1ccc(O[C@H]2c3cc(Cl)ccc3C[C@@H]2N2CC[C@H](F)C2)c(Cl)c1 [Example 559, 4-{3-chloro-4-[trans-(1S,2S)-6-chloro-2-((S)-3-fluoropyrrolidin-1-yl)indan-1-yloxy]phenyl}-3,5-dimethyl-4H-[1,2,4]triazole]",
1 to 10,"Cc1nn(C)c(C)c1-c1ccc(O[C@H]2c3cc(Cl)ccc3C[C@@H]2N2CC[C@@H](O)C2)cc1 [Example 140, (R)-1-{trans-(1S,2S)-6-chloro-1-[4-(1,3,5-trimethyl-1H-pyrazol-4-yl)phenoxy]indan-2-yl}pyrrolidin-3-ol]",
1 to 10,"N#Cc1ccc(O[C@H]2c3ccccc3C[C@@H]2N2CCCC2)cc1 (racemic) [Example 468, 4-(rac-trans-(1,2)-2-pyrrolidin-1-ylindan-1-yloxy)benzonitrile]",
1 to 10,"CC1(C)NC(=O)N(c2ccc(Cl)c(O[C@H]3c4cc(Cl)cc(Cl)c4C[C@@H]3N3CC[C@@H](O)C3)c2)C1=O [Example 431, 3-{4-chloro-3-[(1S,2S)-4,6-dichloro-2-((R)-3-hydroxypyrrolidin-1-yl)indan-1-yloxy]phenyl}-5,5-dimethylimidazolidine-2,4-dione]",
1 to 10,"O[C@@H]1CCN([C@H]2Cc3c(Cl)cc(Cl)cc3[C@@H]2Oc2ccc(-n3ccnc3)cc2)C1 [Example 728, (R)-1-[trans-(1S,2S)-4,6-Dichloro-1-(4-imidazol-1-yl-phenoxy)-indan-2-yl]-pyrrolidin-3-ol]",
1 to 10,"CC(=O)Nc1cccc(O[C@H]2c3cc(Cl)cc(Cl)c3C[C@@H]2N2CC[C@@H](CO)C2)c1 [Example 695, N-{3-[trans-(1S,2S)-4,6-dichloro-2-((R)-3-hydroxymethylpyrrolidin-1-yl)indan-1-yloxy]phenyl}acetamide]",
1 to 10,"Cc1nnnn1-c1ccc(O[C@H]2c3cc(Cl)cc(Cl)c3C[C@@H]2N2CC[C@@H](O)C2)cc1 [Example 112, (R)-1-{(1S,2S)-4,6-dichloro-1-[4-(5-methyltetrazol-1-yl)phenoxy]indan-2-yl}pyrrolidin-3-ol]",
,"c1ccc2c(c1)CC[C@H](N1CCOCC1)[C@H]2Oc1cnc2ccccc2c1 (racemic) [Example 400, 3-(rac-trans-(1,2)-2-morpholin-4-yl-1,2,3,4-tetrahydronaphthalen-1-yloxy)quinoline]",inhibition at 10 µM [1]: 20 to 50%
